System: Boophilus microplus, Biarra strain (resistant)
Assay: In-vitro test for ovicidal effect on ticks (Biarra strain)
Protocol: In-vitro Test for Ovicidal Effect on Ticks
The emulsion concentrate so obtained is diluted with water to the application concentration desired in each case.
After immersion of, in each case, 10 female specimens of the various strains of ticks, the individual ticks are transferred to plastic dishes, the bottom of each of which is covered with a disc of filter paper.

[1] = Table 1b, concentration giving 100% inhibition
[2] = Table 1b, concentration giving >50% inhibition
[3] = Table 2, concentration giving 100% inhibition
[4] = Table 2, concentration giving >50% inhibition

CCN1CCCC1=Nc1ccc(Cl)cc1Cl [Compound 21]
Ovicidal effect: 100% inhibition with the stated concentration of active compound [1]: 0.1 % by weight | Ovicidal effect: >50% inhibition with the stated concentration of active compound [2]: 0.01 % by weight

CCN1CCCC1=Nc1cc(Cl)c(Cl)cc1Cl [Compound 31]
Ovicidal effect: 100% inhibition with the stated concentration of active compound [1]: 0.3 % by weight | Ovicidal effect: >50% inhibition with the stated concentration of active compound [2]: 0.1 % by weight

CCN1C(=Nc2ccc(Cl)c(Cl)c2)CCC1C (stereo not drawn) [Compound 51]
Ovicidal effect: 100% inhibition with the stated concentration of active compound [1]: 0.1 % by weight | Ovicidal effect: >50% inhibition with the stated concentration of active compound [2]: 0.03 % by weight

CCCN1CCCC1=Nc1ccc(Cl)c(Cl)c1 [Compound 61]
Ovicidal effect: 100% inhibition with the stated concentration of active compound [1]: 0.03 % by weight | Ovicidal effect: >50% inhibition with the stated concentration of active compound [2]: 0.01 % by weight

CCN1CCCC1=Nc1ccc(Cl)c(Cl)c1 [Compound 81]
Ovicidal effect: 100% inhibition with the stated concentration of active compound [1]: 0.3 % by weight | Ovicidal effect: >50% inhibition with the stated concentration of active compound [2]: 0.1 % by weight

CCCN1CCCC1=Nc1ccc(Cl)cc1Cl [Compound 91]
Ovicidal effect: 100% inhibition with the stated concentration of active compound [1]: 0.03 % by weight | Ovicidal effect: >50% inhibition with the stated concentration of active compound [2]: 0.01 % by weight

Cc1cc(Cl)ccc1N=C1CCCN1CC(C)C [Compound 101]
Ovicidal effect: 100% inhibition with the stated concentration of active compound [1]: 0.1 % by weight | Ovicidal effect: >50% inhibition with the stated concentration of active compound [2]: 0.05 % by weight

CC(C)CN1CCCC1=Nc1ccc(Cl)c(Cl)c1 [Compound 111]
Ovicidal effect: 100% inhibition with the stated concentration of active compound [1]: 0.1 % by weight | Ovicidal effect: >50% inhibition with the stated concentration of active compound [2]: 0.03 % by weight

CC(C)N1CCCC1=Nc1ccc(Cl)c(Cl)c1 [Compound 121]
Ovicidal effect: 100% inhibition with the stated concentration of active compound [1]: 0.1 % by weight | Ovicidal effect: >50% inhibition with the stated concentration of active compound [2]: 0.03 % by weight

CN1CCCC1=Nc1cc(Cl)c(Cl)cc1Cl [Compound 131]
Ovicidal effect: 100% inhibition with the stated concentration of active compound [1]: 0.03 % by weight | Ovicidal effect: >50% inhibition with the stated concentration of active compound [2]: 0.01 % by weight

Cc1cc(Cl)ccc1N=C1CCCN1C [Compound 141]
Ovicidal effect: 100% inhibition with the stated concentration of active compound [1]: 0.3 % by weight | Ovicidal effect: >50% inhibition with the stated concentration of active compound [2]: 0.1 % by weight

CCCCN1CCCC1=Nc1ccc(Cl)cc1C [Compound 151]
Ovicidal effect: 100% inhibition with the stated concentration of active compound [1]: 0.3 % by weight | Ovicidal effect: >50% inhibition with the stated concentration of active compound [2]: 0.1 % by weight

CCCCN1CCCC1=Nc1ccc(Cl)cc1Cl [Compound 161]
Ovicidal effect: 100% inhibition with the stated concentration of active compound [1]: 0.03 % by weight | Ovicidal effect: >50% inhibition with the stated concentration of active compound [2]: 0.01 % by weight

CC(C)CN1CCCC1=Nc1ccc(Cl)cc1Cl [Compound 171]
Ovicidal effect: 100% inhibition with the stated concentration of active compound [1]: 0.1 % by weight | Ovicidal effect: >50% inhibition with the stated concentration of active compound [2]: 0.03 % by weight

CC(C)(C)N1CCCC1=Nc1ccc(Cl)cc1Cl [Compound 181]
Ovicidal effect: 100% inhibition with the stated concentration of active compound [1]: 0.3 % by weight | Ovicidal effect: >50% inhibition with the stated concentration of active compound [2]: 0.1 % by weight

CN1CCCC1=Nc1ccc(Cl)c(Cl)c1 [Compound 191]
Ovicidal effect: 100% inhibition with the stated concentration of active compound [1]: 0.3 % by weight | Ovicidal effect: >50% inhibition with the stated concentration of active compound [2]: 0.1 % by weight

CC1CCC(=Nc2ccc(Cl)c(Cl)c2)N1C (stereo not drawn) [Compound 201]
Ovicidal effect: 100% inhibition with the stated concentration of active compound [1]: 0.3 % by weight | Ovicidal effect: >50% inhibition with the stated concentration of active compound [2]: 0.1 % by weight

CC(C)N1CCCC1=Nc1ccc(Cl)cc1Cl [Compound 221]
Ovicidal effect: 100% inhibition with the stated concentration of active compound [1]: 0.1 % by weight | Ovicidal effect: >50% inhibition with the stated concentration of active compound [2]: 0.03 % by weight

Cc1cc(Cl)ccc1N=C1CCCN1C(C)(C)C [Compound 231]
Ovicidal effect: 100% inhibition with the stated concentration of active compound [1]: 0.3 % by weight | Ovicidal effect: >50% inhibition with the stated concentration of active compound [2]: 0.1 % by weight

CN1CCCC1=Nc1ccc(Br)cc1Br [Compound 251]
Ovicidal effect: 100% inhibition with the stated concentration of active compound [3]: 0.1 % by weight | Ovicidal effect: >50% inhibition with the stated concentration of active compound [4]: 0.03 % by weight

CCN1CCCC1=Nc1ccc(Br)cc1Br [Compound 261]
Ovicidal effect: 100% inhibition with the stated concentration of active compound [3]: 0.1 % by weight | Ovicidal effect: >50% inhibition with the stated concentration of active compound [4]: 0.05 % by weight

CCCN1CCCC1=Nc1ccc(Br)cc1Br [Compound 271]
Ovicidal effect: 100% inhibition with the stated concentration of active compound [3]: 0.3 % by weight | Ovicidal effect: >50% inhibition with the stated concentration of active compound [4]: 0.2 % by weight

C=CCN1CCCC1=Nc1ccc(Br)cc1Br [Compound 281]
Ovicidal effect: 100% inhibition with the stated concentration of active compound [3]: 0.1 % by weight | Ovicidal effect: >50% inhibition with the stated concentration of active compound [4]: 0.03 % by weight

CCCCN1CCCC1=Nc1ccc(Br)cc1Br [Compound 291]
Ovicidal effect: 100% inhibition with the stated concentration of active compound [3]: 0.3 % by weight | Ovicidal effect: >50% inhibition with the stated concentration of active compound [4]: 0.1 % by weight

CN1CCCC1=Nc1ccc(Br)cc1Cl [Compound 301]
Ovicidal effect: 100% inhibition with the stated concentration of active compound [3]: 0.1 % by weight | Ovicidal effect: >50% inhibition with the stated concentration of active compound [4]: 0.05 % by weight

CCN1CCCC1=Nc1ccc(Br)cc1Cl [Compound 311]
Ovicidal effect: 100% inhibition with the stated concentration of active compound [3]: 0.1 % by weight | Ovicidal effect: >50% inhibition with the stated concentration of active compound [4]: 0.08 % by weight

CCCN1CCCC1=Nc1ccc(Br)cc1Cl [Compound 321]
Ovicidal effect: 100% inhibition with the stated concentration of active compound [3]: 0.3 % by weight | Ovicidal effect: >50% inhibition with the stated concentration of active compound [4]: 0.1 % by weight

CCCCN1CCCC1=Nc1ccc(Br)cc1Cl [Compound 331]
Ovicidal effect: 100% inhibition with the stated concentration of active compound [3]: 0.3 % by weight | Ovicidal effect: >50% inhibition with the stated concentration of active compound [4]: 0.1 % by weight

CN1CCCC1=Nc1ccc(Cl)cc1Br [Compound 341]
Ovicidal effect: 100% inhibition with the stated concentration of active compound [3]: 0.1 % by weight | Ovicidal effect: >50% inhibition with the stated concentration of active compound [4]: 0.03 % by weight

CCN1CCCC1=Nc1ccc(Cl)cc1Br [Compound 351]
Ovicidal effect: 100% inhibition with the stated concentration of active compound [3]: 0.1 % by weight | Ovicidal effect: >50% inhibition with the stated concentration of active compound [4]: 0.03 % by weight

CCCN1CCCC1=Nc1ccc(Cl)cc1Br [Compound 361]
Ovicidal effect: 100% inhibition with the stated concentration of active compound [3]: 0.1 % by weight | Ovicidal effect: >50% inhibition with the stated concentration of active compound [4]: 0.03 % by weight

CCCCN1CCCC1=Nc1ccc(Cl)cc1Br [Compound 371]
Ovicidal effect: 100% inhibition with the stated concentration of active compound [3]: 0.03 % by weight | Ovicidal effect: >50% inhibition with the stated concentration of active compound [4]: 0.01 % by weight

CN1CCCC1=Nc1ccc(F)cc1Br [Compound 381]
Ovicidal effect: 100% inhibition with the stated concentration of active compound [3]: 0.3 % by weight | Ovicidal effect: >50% inhibition with the stated concentration of active compound [4]: 0.1 % by weight

CCCN1CCCC1=Nc1ccc(F)cc1Br [Compound 391]
Ovicidal effect: 100% inhibition with the stated concentration of active compound [3]: 0.03 % by weight | Ovicidal effect: >50% inhibition with the stated concentration of active compound [4]: 0.02 % by weight

CCN1CCCC1=Nc1ccc(Br)c(Cl)c1 [Compound 401]
Ovicidal effect: 100% inhibition with the stated concentration of active compound [3]: 0.1 % by weight | Ovicidal effect: >50% inhibition with the stated concentration of active compound [4]: 0.08 % by weight

C=CCN1CCCC1=Nc1ccc(Br)c(Cl)c1 [Compound 411]
Ovicidal effect: 100% inhibition with the stated concentration of active compound [3]: 0.3 % by weight | Ovicidal effect: >50% inhibition with the stated concentration of active compound [4]: 0.1 % by weight

CCCCN1CCCC1=Nc1ccc(Br)c(Cl)c1 [Compound 421]
Ovicidal effect: 100% inhibition with the stated concentration of active compound [3]: 0.3 % by weight | Ovicidal effect: >50% inhibition with the stated concentration of active compound [4]: 0.2 % by weight

C=CCN1CCCC1=Nc1ccc(Br)cc1C [Compound 431]
Ovicidal effect: 100% inhibition with the stated concentration of active compound [3]: 0.1 % by weight | Ovicidal effect: >50% inhibition with the stated concentration of active compound [4]: 0.03 % by weight

C=CCN1CCCC1=Nc1ccc(Br)cc1CC [Compound 441]
Ovicidal effect: 100% inhibition with the stated concentration of active compound [3]: 0.3 % by weight | Ovicidal effect: >50% inhibition with the stated concentration of active compound [4]: 0.1 % by weight

C=CCN1CCCC1=Nc1ccc(Cl)cc1Br [Compound 451]
Ovicidal effect: 100% inhibition with the stated concentration of active compound [3]: 0.1 % by weight | Ovicidal effect: >50% inhibition with the stated concentration of active compound [4]: 0.01 % by weight

CCCCN1CCCC1=Nc1ccc(Br)cc1C [Compound 461]
Ovicidal effect: 100% inhibition with the stated concentration of active compound [3]: 0.3 % by weight | Ovicidal effect: >50% inhibition with the stated concentration of active compound [4]: 0.2 % by weight

C=CCN1CCCC1=Nc1ccc(F)c(Br)c1 [Compound 471]
Ovicidal effect: 100% inhibition with the stated concentration of active compound [3]: 0.1 % by weight | Ovicidal effect: >50% inhibition with the stated concentration of active compound [4]: 0.08 % by weight

— patent US4077981A, “Certain 1-alkyl-2-dichlorophenyliminopyrrolidines” (Bayer Aktiengesellschaft, priority 1968, dated 1978)
